Assay results: patent publication US20180360924A1, “TELOMERE EXTENSION AND ANTI-INFLAMMATORY AGENTS FOR CELL REGENERATION” (THE METHODIST HOSPITAL SYSTEM, priority 2015, published 2018)

Tested on: Human chondrocytes
Experiment: Telomere length in chondrocytes, relative quantification for the telomeric repeat (T/S-ratio)
Format: cell-based
Conditions: LFA transfection, n=3, P65i high

RelA/NFkB p65 [pSer529, pSer536] inhibitor peptide [P65i]
% increase in TL: 4.0%
T/S-ratio: 1.01
